According to article PMC8626775, “Anti-schistosomal activities of quinoxaline-containing compounds: From hit identification to lead optimisation” (European Journal of Medicinal Chemistry, 2021):
pEC50: −log10 of the molar value. Like-named read-outs stand apart in the source and are kept apart here.

Legend:
S. mansoni schistosomula = S. mansoni schistosomula high-throughput phenotype and motility screen (Roboworm), 72 h; type: cell-based, Schistosoma mansoni
Summary of the method: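 Newly transformed schistosomula (S. mansoni PR-1, mechanically transformed cercariae), 120 per well, exposed to compounds at a single concentration or two-fold titrations for 72 h at 37 °C, 5% CO2.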

[1] = HepG2 MTT cytotoxicity assay; settings: human, HepG2 cells
Description: (§1) Initially the cells were handled under sterile conditions and grown at 37 °C in a humidified atmosphere containing 5% CO2. Cytotoxicity was evaluated by way of a 3-(4, 5- dimethylthiazol-2-yl)-2,5-diphenyl tetrazolium bromide (MTT) assay as previously described. The cells were counted in a dual chamber counting slide using the BIORAD TC-10 Automated cell counter, seeded in a 96-well plate (Fisher Scientific, Loughborough, UK) at a density of 2 × 10^4 cells/well and incubated in an atmosphere of 5% CO2 at 37 °C. […] The absorbance readings (at 570 nm) of the soluble formazan crystals were recorded using PolarStar Omega plate reader (BMG-Labtech). […] The latter was used to calculate the selectivity index (SI) of the compounds presented herein.

S. mansoni adult worms [2] = experiment: In vitro laid egg (IVLE) production by S. mansoni adult worm pairs, 72 h; type: cell-based, Schistosoma mansoni
Description: For the evaluation of anti-schistosomal activity on the adult stage of the parasite, 7-wk old worms were transferred into 48 well tissue culture plates (1–3 worm pairs/well, in duplicate). […] DMSO (0.5%) and praziquantel (10 μM in 0.5% DMSO) were also included as negative and positive control treatments. Treated adult worms were incubated for 72 h in a humidified environment containing 5% CO2 at 37 °C. Parasite motility after compound treatment was assessed by a digital image processing-based system (WormassayGP2), modified after Wormassay. Following compound-parasite co-incubation, eggs were collected, fixed in formalin (10% v/v formaldehyde) and enumerated aiming to collect further information on any compound-induced effects on parasite fecundity and IVLE production.

S. mansoni adult worms [3] = experiment: S. mansoni adult worm motility screen (WormassayGP2), 72 h; type: cell-based, Schistosoma mansoni
Summary of the method: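 Seven-week adult S. mansoni worms, perfused from infected mice, were exposed in duplicate (1–3 pairs/well) to […] compound in 0.5% DMSO for 72 h at 37 °C, 5% CO2. Motility was scored by image-based WormassayGP2, and eggs were counted afterwards.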

HepG2 cells = experiment: HepG2 MTT cytotoxicity assay; settings: for CC50: Table 2, MTT
Description: as §1

[4] = test system: Juvenile S. mansoni worms; experiment: S. mansoni juvenile worm screen (motility score, propidium iodide uptake), 72 h; type: cell-based, Schistosoma mansoni; settings: juvenile worms, positive controls at 15 μM, Fig. S4
From the text: Mice (Mus musculus HsdOLa:TO - Tuck Ordinary; Envigo, UK) were used for the mammalian-specific propagation of the S. mansoni life cycle. Experimental animals were infected with 4000 or 180 S. mansoni cercariae/mouse and perfused three- or seven-weeks post-infection to obtain S. mansoni juvenile or adult worms, respectively. Preparation steps following perfusion have been described previously. Briefly, the parasite material was washed three times with pre-warmed adult worm media (DMEM (Gibco, Paisley, UK) supplemented with 10% (v/v) Fetal Calf Serum (FCS, Gibco, Paisley, UK), 1% (v/v) L-glutamine (Gibco, Paisley, UK) and an antibiotic mixture (150 Units/ml penicillin and 150 μg/ml streptomycin; Gibco, UK)) to remove residual host contamination and incubated in a humidified environment containing 5% CO2 at 37 °C for at least 1 h.
Juvenile worms were distributed in a 96-well tissue culture plate (n = 20–25 individuals/well) containing 200 μl/well. Compounds were added to each treatment well at a concentration range of 10–0.156 μM. Negative (1.25% DMSO) and positive (15 μM PZQ and 15 μM AUR in 1.25% DMSO) controls were also included in each drug screen. Treated juvenile worms were incubated for 72 h in a humidified environment containing 5% CO2 at 37 °C. Compound-induced phenotype and motility effects were quantified using an adapted version of the WHO-TDR scoring system (in summary: 0 = dead, 1 = movement of the suckers only and slight contraction of the body, 2 = movement at the anterior and posterior regions only, 3 = full body movement but sluggish and 4 = normal movement). Additionally, differential uptake of propidium iodide (PI, P1304MP, Sigma-Aldrich, UK) was used to quantify worm viability as previously described. In brief, after 15 min incubation with 2 μg/ml PI, the parasite cultures were imaged under both bright-field and fluorescent settings (PI detection, 562 and 624 excitation and emission wavelengths, respectively) using an ImageXpressXL high content imager (Molecular Devices, UK). Enumeration of PI positive and negative juvenile worms was manually performed across all parasites within the well and the percentage of PI positive parasite was calculated per well.

S. mansoni [5] = test system: S. mansoni; design: method as in PMID 24416463; settings: cited from earlier work
S. mansoni [6] = test system: S. mansoni; design: method as in PMID 24416463; settings: cited from earlier work; remark: listed apart in the source
[7] = Schistosoma mansoni, 72 h, Table 1, 72 h, two dose response titrations (0.313–10 μM), 95% CI in brackets, read-out: Activity on schistosomula (EC50, μM - 72 h) Motility
[8] = Schistosoma mansoni, 72 h, Table 1, 72 h, two dose response titrations (0.313–10 μM), 95% CI in brackets, read-out: Activity on schistosomula (EC50, μM - 72 h) Phenotype
[9] = Schistosoma mansoni, 72 h, Table 1, mean of phenotype and motility EC50, 72 h, read-out: Activity on schistosomula (EC50, μM - 72 h) Average
[10] = Table 2, average of phenotype and motility EC50, 72 h, read-out: Activity on schistosomula (EC50, μM - 72 h) Average
[11] = Table 2, motility, 72 h, three replicate titrations (0.313–10 μM), read-out: Activity on schistosomula (EC50, μM - 72 h) M
[12] = Table 2, phenotype, 72 h, three replicate titrations (0.313–10 μM), read-out: Activity on schistosomula (EC50, μM - 72 h) P
[13] = Schistosoma mansoni, 72 h, Table 2, average of phenotype and motility EC50, 72 h, read-out: Activity on schistosomula (EC50, μM - 72 h) Average
[14] = Schistosoma mansoni, 72 h, Table 2, motility, 72 h, three replicate titrations (0.313–10 μM), read-out: Activity on schistosomula (EC50, μM - 72 h) M
[15] = Schistosoma mansoni, 72 h, Table 2, phenotype, 72 h, three replicate titrations (0.313–10 μM), read-out: Activity on schistosomula (EC50, μM - 72 h) P
[16] = Schistosoma mansoni, Table 2, 72 h, titrations 0.0095–5 μM, WormassayGP2, read-out: Activity on adult worms (EC50, μM - 72 h) Motility

## O=[N+]([O-])c1ccc2nc(-c3ccc(F)cc3)c(-c3ccc(F)cc3)nc2c1 [Compound 21]
S. mansoni schistosomula; [7]
  EC50: > 50 µM
S. mansoni schistosomula; [8]
  EC50: > 50 µM
S. mansoni schistosomula; primary tested concentrations 10 and 50 μM, 72 h
  Effect on phenotype and motility of S. mansoni schistosomula: did not have any effect
[1]
  CC50 at 24 h: 6000 to 20000 nM

## c1ccc(/N=c2\sc3ccccc3s\c2=N\c2ccccc2)cc1 [Compound 1]
S. mansoni schistosomula; 72 h
  Activity on schistosomula in the primary screen at 10 μM: hit
S. mansoni schistosomula; 50 μM, 72 h
  Activity on schistosomula in the primary screen at 50 μM: hit
S. mansoni schistosomula; [7]
  EC50: 4.47 µM
S. mansoni schistosomula; [8]
  EC50: 4.72 µM
S. mansoni schistosomula; [9]
  EC50: 4.59 µM
S. mansoni schistosomula; Schistosoma mansoni, Fig. S3, average schistosomula EC50, read-out: EC50 (Fig. S3, anti-schistosomula activity)
  pEC50: 5.36
S. mansoni schistosomula; dose-response titration, 72 h
  Concentration down to which activity on schistosomula was retained: 5 µM
S. mansoni adult worms [2]; titration 50–6.25 μM
  Concentration up until which production of in vitro laid eggs (IVLEs) was significantly inhibited: 12.5 µM
S. mansoni adult worms [3]; 6.25 μM, 72 h
  Adult worm motility at 6.25 μM: normal motility
S. mansoni adult worms [3]; 50 and 25 μM, 72 h
  Effect on adult male and female worm pairs at 50 and 25 μM: lethal effect

## CC(=O)OC[C@H]1O[C@@H]([S-])[C@H](OC(C)=O)[C@@H](OC(C)=O)[C@@H]1OC(C)=O.CCP(CC)CC.[Au+] [AUR, Auranofin, reference compound]
S. mansoni schistosomula; Table 1, 72 h, two dose response titrations (0.313–10 μM), 95% CI in brackets, read-out: Activity on schistosomula (EC50, μM - 72 h) Motility
  EC50: 0.45 µM
S. mansoni schistosomula; Table 1, mean of phenotype and motility EC50, 72 h, read-out: Activity on schistosomula (EC50, μM - 72 h) Average
  EC50: 0.41 µM
S. mansoni schistosomula; [10]
  EC50: 0.41 µM
S. mansoni schistosomula; [11]
  EC50: 0.45 µM
S. mansoni schistosomula; [12]
  EC50: 0.37 µM
HepG2 cells; read-out: HepG2 cells (CC50, μM) 24 h, 24 h co-incubation
  CC50: 5.07 µM
HepG2 cells; read-out: HepG2 cells (CC50, μM) 72 h, 72 h co-incubation
  CC50: 2.94 µM
[4]
  PI pos: 0%

## O=C(C1CCCCC1)N1CC(=O)N2CCc3ccccc3C2C1 (stereo not drawn) [PZQ, praziquantel, reference compound]
S. mansoni schistosomula; [7]
  EC50: 0.88 µM
S. mansoni schistosomula; [8]
  EC50: 1.14 µM
S. mansoni schistosomula; [9]
  EC50: 1.01 µM
S. mansoni schistosomula; [13]
  EC50: 1.01 µM
S. mansoni schistosomula; [14]
  EC50: 0.88 µM
S. mansoni schistosomula; [15]
  EC50: 1.14 µM
HepG2 cells; HepG2 CC50 versus adult worm EC50
  Selectivity Index (SI) Adult worms: 945.31
HepG2 cells; HepG2 CC50 versus schistosomula EC50
  Selectivity Index (SI) Somula: 100.05
[4]
  PI pos: 100%
S. mansoni adult worms [3]; [16]
  EC50: 0.107 µM

## O=[N+]([O-])c1ccc2nc(Nc3ccccc3)c(Nc3ccccc3)nc2c1 [Compound 19]
S. mansoni schistosomula; 72 h
  Activity on schistosomula in the primary screen at 10 μM: retained activity
S. mansoni schistosomula; [7]
  EC50: 1.35 µM
S. mansoni schistosomula; [8]
  EC50: 1.89 µM
S. mansoni schistosomula; [9]
  EC50: 1.62 µM
S. mansoni schistosomula; Schistosoma mansoni, Table 3, read-out: Anti-schistosomal activity EC50 (μM) Schistosomula Motility
  EC50: 1.35 µM
S. mansoni schistosomula; Schistosoma mansoni, Table 3, read-out: Anti-schistosomal activity EC50 (μM) Schistosomula Phenotype
  EC50: 1.89 µM
[1]
  CC50 at 24 h: 12600 nM
S. mansoni adult worms [3]; 3.15 μM, lowest concentration tested
  Effect on adult worm motility at 3.15 μM: complete cessation of worm mobility
S. mansoni adult worms [3]; 12.5 and 6.25 μM
  Effect on adult worm motility at 12.5 and 6.25 μM: particularly active

## N2, N3-bis(4-bromophenyl)quinoxaline-2,3-diamine [Compound 38, reference compound]
S. mansoni schistosomula; 72 h, read-out: EC50 on schistosomula (bounds and ranges given)
  pEC50: < 5.70
S. mansoni schistosomula; [10]
  EC50: 2.44 µM
S. mansoni schistosomula; [11]
  EC50: 1.21 µM
S. mansoni schistosomula; [12]
  EC50: 3.67 µM
S. mansoni [5]
  In vitro activity on S. mansoni: sub micromolar range
S. mansoni [6]; four per oral doses of 100 mg/kg, delivered every 4 h
  Worm burden reduction: 53.4%
S. mansoni [6]; single per oral dose of 400 mg/kg
  Worm burden reduction: 40.8%
S. mansoni adult worms [3]; Table 2, 72 h, titrations 0.0095–5 μM, WormassayGP2, read-out: Activity on adult worms (EC50, μM - 72 h) Motility
  EC50: 0.162 µM

## O=[N+]([O-])c1ccc2nc(Nc3cc(F)cc(C(F)(F)F)c3)c(Nc3cc(F)cc(C(F)(F)F)c3)nc2c1 [Compound 34, N2, N3-bis(3-fluoro-5-(trifluoromethyl)phenyl)-6-nitroquinoxaline-2,3-diamine]
S. mansoni schistosomula; [13]
  EC50: 0.4 µM
S. mansoni schistosomula; [14]
  EC50: 0.43 µM
S. mansoni schistosomula; [15]
  EC50: 0.37 µM
S. mansoni schistosomula; Schistosoma mansoni, Table 4, Series A, read-out: Anti-schistosomal activity EC50 Schistosomula (μM) Motility
  EC50: 0.43 µM
S. mansoni schistosomula; Schistosoma mansoni, Table 4, Series A, read-out: Anti-schistosomal activity EC50 Schistosomula (μM) Phenotype
  EC50: 0.37 µM
S. mansoni adult worms [2]; 0.0024–10 μM
  Effect on IVLE production compared with PZQ: more potent than PZQ
S. mansoni adult worms [3]; Schistosoma mansoni, Table 4, Series A, read-out: Anti-schistosomal activity EC50 Adult (nM) Motility
  EC50: 0.00647 µM
S. mansoni adult worms [3]; [16]
  EC50: 0.00647 µM
